Assay results taken from patent US20240166635A1, “AMINOHETEROARYL KINASE INHIBITORS” (Anrui Biomedical Technology (Guangzhou) Co.,Ltd., priority 2020, published 2024).

Key:
Format in all cases: biochemical
CDK2/CyclinE1 = CDK2/CyclinE1 (Homo sapiens (Human), UniProt P24941); experiment: CDK2/CyclinE1 kinase inhibitory activity (Caliper mobility shift); settings: for IC50: read-out: CDK2/Cyclin El IC50
CDK1/CyclinB = CDK1/CyclinB (Homo sapiens (Human), UniProt P06493); experiment: CDK1/CyclinB kinase inhibitory activity (Caliper mobility shift); settings: read-out: CDK1/Cyclin B1 IC50
Sequence of CDK1/CyclinB (P06493 whole entry): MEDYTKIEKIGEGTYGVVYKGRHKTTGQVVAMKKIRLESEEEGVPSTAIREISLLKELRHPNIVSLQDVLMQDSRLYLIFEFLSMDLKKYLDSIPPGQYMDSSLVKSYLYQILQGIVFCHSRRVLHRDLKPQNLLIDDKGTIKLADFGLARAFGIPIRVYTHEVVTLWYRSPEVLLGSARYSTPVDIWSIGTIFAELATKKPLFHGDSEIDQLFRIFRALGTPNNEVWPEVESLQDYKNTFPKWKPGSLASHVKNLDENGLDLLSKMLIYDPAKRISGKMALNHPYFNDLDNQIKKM
Sequence of CDK1/CyclinB (P14635 whole entry partner): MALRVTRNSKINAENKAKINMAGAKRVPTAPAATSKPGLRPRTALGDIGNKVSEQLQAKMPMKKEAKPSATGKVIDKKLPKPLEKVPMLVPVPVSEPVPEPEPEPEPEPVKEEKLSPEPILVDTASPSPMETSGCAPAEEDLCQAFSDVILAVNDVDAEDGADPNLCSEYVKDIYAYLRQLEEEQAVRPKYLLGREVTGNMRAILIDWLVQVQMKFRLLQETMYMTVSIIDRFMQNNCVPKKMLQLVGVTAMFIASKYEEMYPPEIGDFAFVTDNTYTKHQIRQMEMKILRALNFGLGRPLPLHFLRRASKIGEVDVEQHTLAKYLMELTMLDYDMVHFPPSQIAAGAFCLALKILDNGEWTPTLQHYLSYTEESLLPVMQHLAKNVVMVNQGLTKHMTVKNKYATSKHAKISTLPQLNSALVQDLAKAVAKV

CDK4/Cyclin D1 = CDK4/Cyclin D1 (Homo sapiens (Human), UniProt P11802); experiment: CDK4/CyclinD1 kinase inhibitory activity (Caliper mobility shift)
Sequence of CDK4/Cyclin D1 (P11802 whole entry): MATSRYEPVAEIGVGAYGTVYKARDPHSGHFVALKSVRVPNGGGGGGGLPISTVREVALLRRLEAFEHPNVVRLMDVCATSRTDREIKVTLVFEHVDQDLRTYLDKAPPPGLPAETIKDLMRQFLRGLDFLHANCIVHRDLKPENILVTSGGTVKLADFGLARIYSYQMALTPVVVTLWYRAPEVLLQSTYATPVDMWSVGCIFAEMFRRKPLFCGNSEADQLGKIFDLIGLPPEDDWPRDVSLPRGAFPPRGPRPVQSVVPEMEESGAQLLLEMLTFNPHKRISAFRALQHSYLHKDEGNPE
Sequence of CDK4/Cyclin D1 (P24385 whole entry partner): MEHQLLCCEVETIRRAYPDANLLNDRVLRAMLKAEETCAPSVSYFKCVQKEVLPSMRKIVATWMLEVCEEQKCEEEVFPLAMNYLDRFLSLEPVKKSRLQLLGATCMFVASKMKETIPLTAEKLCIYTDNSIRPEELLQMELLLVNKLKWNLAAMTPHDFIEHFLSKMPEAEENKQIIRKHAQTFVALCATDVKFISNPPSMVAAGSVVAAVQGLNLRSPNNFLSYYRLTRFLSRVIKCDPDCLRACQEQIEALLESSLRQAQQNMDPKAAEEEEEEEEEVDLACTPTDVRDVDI

CDK6/CyclinD1 = CDK6/CyclinD1 (Homo sapiens (Human), UniProt Q00534); experiment: CDK6/CyclinD1 kinase inhibitory activity (Caliper mobility shift); settings: read-out: CDK6/Cyclin D1 IC50
Sequence of CDK6/CyclinD1 (Q00534 whole entry): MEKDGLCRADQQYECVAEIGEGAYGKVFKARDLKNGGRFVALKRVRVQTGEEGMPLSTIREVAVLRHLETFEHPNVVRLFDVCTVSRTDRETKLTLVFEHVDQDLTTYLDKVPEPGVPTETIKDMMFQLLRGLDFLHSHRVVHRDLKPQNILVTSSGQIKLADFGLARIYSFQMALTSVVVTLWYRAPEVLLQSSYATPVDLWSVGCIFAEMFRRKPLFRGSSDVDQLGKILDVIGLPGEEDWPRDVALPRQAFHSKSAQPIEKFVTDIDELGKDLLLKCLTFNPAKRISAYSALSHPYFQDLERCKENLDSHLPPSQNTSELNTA
Sequence of CDK6/CyclinD1 (P24385 whole entry partner): as the sequence (P24385 whole entry partner) above

CDK7/CyclinH/MAT1 = CDK7/CyclinH/MAT1 (Homo sapiens (Human), UniProt P50613); experiment: CDK7/CyclinH/MAT1 kinase inhibitory activity (Caliper mobility shift)
Sequence of CDK7/CyclinH/MAT1 (P50613 whole entry): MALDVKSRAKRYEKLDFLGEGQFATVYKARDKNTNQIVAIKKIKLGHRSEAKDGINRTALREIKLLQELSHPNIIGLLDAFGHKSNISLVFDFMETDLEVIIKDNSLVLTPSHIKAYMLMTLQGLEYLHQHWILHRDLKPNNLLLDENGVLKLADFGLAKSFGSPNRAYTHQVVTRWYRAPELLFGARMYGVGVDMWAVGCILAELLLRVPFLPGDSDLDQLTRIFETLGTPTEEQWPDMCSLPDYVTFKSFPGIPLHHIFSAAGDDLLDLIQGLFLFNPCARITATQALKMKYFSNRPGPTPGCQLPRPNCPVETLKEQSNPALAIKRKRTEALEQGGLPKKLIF
Sequence of CDK7/CyclinH/MAT1 (P51946 whole entry partner): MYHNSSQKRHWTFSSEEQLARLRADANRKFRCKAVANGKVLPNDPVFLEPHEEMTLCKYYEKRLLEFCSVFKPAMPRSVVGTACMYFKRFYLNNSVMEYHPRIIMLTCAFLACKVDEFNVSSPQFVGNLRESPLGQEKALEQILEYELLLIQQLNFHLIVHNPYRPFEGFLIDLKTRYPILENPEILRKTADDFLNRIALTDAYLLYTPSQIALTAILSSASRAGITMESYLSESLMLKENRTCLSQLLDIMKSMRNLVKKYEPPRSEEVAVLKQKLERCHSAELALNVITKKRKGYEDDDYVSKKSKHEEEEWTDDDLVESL
Sequence of CDK7/CyclinH/MAT1 (P51948 whole entry partner): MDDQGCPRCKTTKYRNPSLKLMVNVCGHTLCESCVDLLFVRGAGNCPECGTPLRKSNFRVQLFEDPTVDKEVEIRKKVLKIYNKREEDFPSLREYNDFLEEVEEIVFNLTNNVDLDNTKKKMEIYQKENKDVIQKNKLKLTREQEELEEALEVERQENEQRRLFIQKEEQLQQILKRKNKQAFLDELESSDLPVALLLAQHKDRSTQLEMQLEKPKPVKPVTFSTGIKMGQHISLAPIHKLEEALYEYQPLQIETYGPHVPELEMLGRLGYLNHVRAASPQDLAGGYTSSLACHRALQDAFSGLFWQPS

CDK9/CyclinT1 = CDK9/CyclinT1 (Homo sapiens (Human), UniProt P50750); experiment: CDK9/CyclinT1 kinase inhibitory activity (Caliper mobility shift); settings: read-out: CDK9/Cyclin T1 IC50
Sequence of CDK9/CyclinT1 (P50750 whole entry): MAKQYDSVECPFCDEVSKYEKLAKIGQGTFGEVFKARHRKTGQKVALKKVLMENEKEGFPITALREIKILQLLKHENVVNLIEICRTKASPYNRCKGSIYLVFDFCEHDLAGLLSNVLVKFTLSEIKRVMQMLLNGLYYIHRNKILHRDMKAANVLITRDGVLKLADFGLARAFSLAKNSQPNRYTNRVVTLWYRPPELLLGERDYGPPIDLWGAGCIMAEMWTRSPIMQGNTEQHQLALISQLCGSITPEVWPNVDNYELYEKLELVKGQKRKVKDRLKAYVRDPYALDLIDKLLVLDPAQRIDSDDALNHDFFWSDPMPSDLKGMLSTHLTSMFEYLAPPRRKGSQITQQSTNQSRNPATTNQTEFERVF
Sequence of CDK9/CyclinT1 (O60563 whole entry partner): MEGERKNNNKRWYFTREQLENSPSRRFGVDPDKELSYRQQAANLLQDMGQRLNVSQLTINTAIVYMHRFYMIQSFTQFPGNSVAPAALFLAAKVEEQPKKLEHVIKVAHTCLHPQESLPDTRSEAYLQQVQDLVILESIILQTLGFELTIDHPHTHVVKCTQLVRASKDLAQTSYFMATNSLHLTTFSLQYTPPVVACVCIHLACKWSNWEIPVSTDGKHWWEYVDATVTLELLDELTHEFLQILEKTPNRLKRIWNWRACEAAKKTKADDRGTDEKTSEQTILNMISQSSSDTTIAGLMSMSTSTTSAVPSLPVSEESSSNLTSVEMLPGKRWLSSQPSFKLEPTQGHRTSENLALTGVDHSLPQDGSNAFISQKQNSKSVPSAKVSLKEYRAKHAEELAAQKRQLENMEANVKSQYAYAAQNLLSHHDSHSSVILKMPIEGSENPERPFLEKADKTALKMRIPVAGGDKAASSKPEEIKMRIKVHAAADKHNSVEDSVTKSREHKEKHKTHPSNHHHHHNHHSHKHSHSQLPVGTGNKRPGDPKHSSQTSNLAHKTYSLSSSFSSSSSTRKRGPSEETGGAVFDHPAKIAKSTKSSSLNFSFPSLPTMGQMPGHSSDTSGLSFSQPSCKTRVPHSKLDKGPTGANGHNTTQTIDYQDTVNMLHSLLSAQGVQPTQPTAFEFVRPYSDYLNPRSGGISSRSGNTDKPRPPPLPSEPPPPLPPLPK

| Compound | IC50 (CDK2/CyclinE1) | IC50 (CDK1/CyclinB) | IC50 (CDK4/Cyclin D1) | IC50 (CDK6/CyclinD1) | IC50 (CDK7/CyclinH/MAT1) | IC50 (CDK9/CyclinT1) | selectivity over CDK1 (CDK2/CyclinE1; inhibiting CDK2 over CDK1) |
| --- | --- | --- | --- | --- | --- | --- | --- |
| CC1(O)CC(F)(F)CC1Oc1nc(NC2CCN(S(=O)(=O)CC3CC3)CC2)ncc1C#N (single isomer, unassigned) [Example 44b] | < 0.01 µM | 0.01 to 0.1 µM | 0.01 to 0.1 µM | < 0.01 µM | 0.01 to 0.1 µM | 0.1 to 1 µM | – |
| CC1(O)COCCC1Oc1nc(NC2CCN(S(C)(=O)=O)CC2)ncc1C(F)(F)F (single isomer, unassigned) [Example 124a] | < 0.01 µM | 0.01 to 0.1 µM | 0.01 to 0.1 µM | 0.01 to 0.1 µM | < 0.01 µM | 0.01 to 0.1 µM | – |
| CS(=O)(=O)N1CCC(Nc2ncc(C(F)(F)F)c(OC3CCC3)n2)CC1 [Example 126] | < 0.01 µM | 0.01 to 0.1 µM | 0.01 to 0.1 µM | 0.01 to 0.1 µM | 0.1 to 1 µM | 0.1 to 1 µM | – |
| CCc1cnc(Nc2ccc(S(N)(=O)=O)cc2)nc1O[C@@H]1CCC[C@@H]1O (single isomer, unassigned) [Example 133a, cis-4-((5-ethyl-4-((2-hydroxycyclopentyl)oxy)pyrimidin-2-yl)amino)benzenesulfonamide] | < 0.01 µM | 0.01 to 0.1 µM | 0.1 to 1 µM | 0.01 to 0.1 µM | 0.1 to 1 µM | 0.01 to 0.1 µM | – |
| CNS(=O)(=O)c1ccc(Nc2ncc(C#N)c(N3CCCCC3)n2)cc1 [Example 91] | < 0.01 µM | 0.01 to 0.1 µM | 0.01 to 0.1 µM | 0.1 to 1 µM | ≥ 1 µM | 0.1 to 1 µM | – |
| CS(=O)(=O)N1CCC(Nc2ncc(C(F)(F)F)c(OC3CCCCC3)n2)CC1 [Example 127] | < 0.01 µM | 0.01 to 0.1 µM | < 0.01 µM | 0.1 to 1 µM | 0.1 to 1 µM | 0.01 to 0.1 µM | – |
| CN1CCC(NS(=O)(=O)c2ccc(Nc3ncc(Cl)c(OC4CCCC4O)n3)cc2)CC1 (single isomer, unassigned) [Example 139b] | 0.01 to 0.1 µM | 0.1 to 1 µM | 0.1 to 1 µM | 0.1 to 1 µM | ≥ 1 µM | ≥ 1 µM | – |
| CC1(O)CC(F)(F)CCC1Oc1nc(NC2CCN(S(C)(=O)=O)CC2)ncc1C#N (single isomer, unassigned) [Example 47a] | < 0.01 µM | 0.01 to 0.1 µM | < 0.01 µM | < 0.01 µM | 0.01 to 0.1 µM | 0.1 to 1 µM | – |
| CC1(O)CCC(F)(F)CC1Oc1nc(NC2CCN(S(C)(=O)=O)CC2)ncc1C#N (single isomer, unassigned) [Example 46b] | < 0.01 µM | < 0.01 µM | < 0.01 µM | < 0.01 µM | < 0.01 µM | 0.01 to 0.1 µM | – |
| NS(=O)(=O)c1ccc(Nc2ncc(C(F)(F)F)c(OC3CCOCC3O)n2)cc1 (single isomer, unassigned) [Example 114a] | < 0.01 µM | 0.01 to 0.1 µM | 0.1 to 1 µM | 0.1 to 1 µM | 0.1 to 1 µM | 0.01 to 0.1 µM | – |
| CC(C)NS(=O)(=O)c1ccc(Nc2ncc(C(F)(F)F)c(OC3CCCC3O)n2)cc1 (single isomer, unassigned) [Example 106a] | < 0.01 µM | < 0.01 µM | 0.01 to 0.1 µM | 0.1 to 1 µM | 0.1 to 1 µM | 0.01 to 0.1 µM | – |
| Cn1cc(S(=O)(=O)N2CCC(Nc3ncc(C#N)c(OC4CCCC4(C)O)n3)CC2)cn1 (single isomer, unassigned) [Example 48a] | < 0.01 µM | < 0.01 µM | < 0.01 µM | < 0.01 µM | 0.01 to 0.1 µM | 0.1 to 1 µM | – |
| N#Cc1cnc(Nc2ccc(S(N)(=O)=O)cc2)nc1OCC1CCC1 [Example 9] | < 0.01 µM | 0.01 to 0.1 µM | 0.01 to 0.1 µM | 0.01 to 0.1 µM | ≥ 1 µM | 0.1 to 1 µM | more than 30 fold |
